pIC50: −log10 of the molar value.
Tested on: 616215-338-R-J1-PDC complex spheroid viability
Test: Anticancer human tumor 616215-338-R-J1-PDC patient-derived colon adenocarcinoma cell line growth inhibition [RAS]
Conditions: for pIC50: curve of first compound; for viability, T/C: stronger effect = lower value
Procedure, shortened: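 Agents were tested in combination matrices in half-log decrements from a top concentration at or near clinical Cmax (10 microM if undetermined). Targets were multi-cell spheroids of tumour lines plus HUVEC and MSC stromal cells.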
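Also: spheroids exposed to agents for seven days before viability readout.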
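For viability, T/C in this document: 100% = DMSO vehicle control viability.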

Compound `C=CC(=O)N1CCN(c2nc(OCC3CCCN3C)nc3c(F)c(-c4nc(N)cc(C)c4C(F)(F)F)c(Cl)cc23)C(C)C1` (configuration not stated) + CCn1c(-c2cc(N3CCN(C)CC3)cnc2C(C)OC)c2c3cc(ccc31)-c1csc(n1)CC(NC(=O)C1CC1C)C(=O)N1CCCC(N1)C(=O)OCC(C)(C)C2 has a pIC50 (second compound 0.000949 µM) of under 6.00, a pIC50 (second compound 0.003 µM) of under 6.00 and a pIC50 (second compound 0.00949 µM) of under 6.00. It also gave a pIC50 (second compound 0.03 µM) of over 8.50, a pIC50 (second compound 0.0949 µM) of over 8.50 and a pIC50 (second compound 0.3 µM) of over 8.50. It also gave a viability, T/C (second compound 0.000949 µM, first compound 0.00316 µM) of 117%, a viability, T/C (second compound 0.000949 µM, first compound 0.01 µM) of 103% and a viability, T/C (second compound 0.000949 µM, first compound 0.0316 µM) of 108%. For the same compound, the viability, T/C (second compound 0.000949 µM, first compound 0.1 µM) was 110%, the viability, T/C (second compound 0.000949 µM, first compound 0.316 µM) was 109% and the viability, T/C (second compound 0.000949 µM, first compound 1 µM) was 107%. The viability, T/C (second compound 0.003 µM, first compound 0.00316 µM) was 114%, the viability, T/C (second compound 0.003 µM, first compound 0.01 µM) was 109% and the viability, T/C (second compound 0.003 µM, first compound 0.0316 µM) was 111%. For the same compound, the viability, T/C (second compound 0.003 µM, first compound 0.1 µM) was 109%, the viability, T/C (second compound 0.003 µM, first compound 0.316 µM) was 113% and the viability, T/C (second compound 0.003 µM, first compound 1 µM) was 103%. The viability, T/C (second compound 0.00949 µM, first compound 0.00316 µM) was 87.8%, the viability, T/C (second compound 0.00949 µM, first compound 0.01 µM) was 77.8% and the viability, T/C (second compound 0.00949 µM, first compound 0.0316 µM) was 81.5%. The viability, T/C (second compound 0.00949 µM, first compound 0.1 µM) was 66.7%, the viability, T/C (second compound 0.00949 µM, first compound 0.316 µM) was 73.8% and the viability, T/C (second compound 0.00949 µM, first compound 1 µM) was 69.3%. The viability, T/C (second compound 0.03 µM, first compound 0.00316 µM) was 43%, the viability, T/C (second compound 0.03 µM, first compound 0.01 µM) was 55.5% and the viability, T/C (second compound 0.03 µM, first compound 0.0316 µM) was 49.3%. The viability, T/C (second compound 0.03 µM, first compound 0.1 µM) was 42.7%, the viability, T/C (second compound 0.03 µM, first compound 0.316 µM) was 55.4% and the viability, T/C (second compound 0.03 µM, first compound 1 µM) was 49.4%. The viability, T/C (second compound 0.0949 µM, first compound 0.00316 µM) was 35%, the viability, T/C (second compound 0.0949 µM, first compound 0.01 µM) was 30.8% and the viability, T/C (second compound 0.0949 µM, first compound 0.0316 µM) was 42.2%. The viability, T/C (second compound 0.0949 µM, first compound 0.1 µM) was 37.5%, the viability, T/C (second compound 0.0949 µM, first compound 0.316 µM) was 49.4% and the viability, T/C (second compound 0.0949 µM, first compound 1 µM) was 35.9%. It also gave a viability, T/C (second compound 0.3 µM, first compound 0.00316 µM) of 40.3%, a viability, T/C (second compound 0.3 µM, first compound 0.01 µM) of 31.8% and a viability, T/C (second compound 0.3 µM, first compound 0.0316 µM) of 36%. The viability, T/C (second compound 0.3 µM, first compound 0.1 µM) was 42.6%, the viability, T/C (second compound 0.3 µM, first compound 0.316 µM) was 42.8% and the viability, T/C (second compound 0.3 µM, first compound 1 µM) was 43.4%.
